From US12708641B2 (priority 2020, dated 2026) come the findings set out here.

Holding throughout (format): cell-based
Data set [1] has as its system rat HEV replicon LA-B350/luc. Description: antiviral activity against rat HEV replicon LA-B350/luc in Huh7 cells (Gaussia luciferase). Conditions: Huh-7, 72 h, 3 days, 50% reduction in Luc signal, two experiments.
Data set [2] concerns HEV Genotype 3 replicon Kernow-C1 p6/luc. Description: antiviral activity against HEV Genotype 3 replicon Kernow-C1 p6/luc in Huh7 cells (Gaussia luciferase). Conditions: Huh-7, 96 h, 4 days, 4PL model, two experiments, read-out: relative EC50. (In general: In antiviral work, replicon cells carry a viral genome segment that copies itself.)
A short description of data set [3]: viability evaluation (MTS/PMS) of replicon RNA-transfected Huh7 cells, Example 2. Conditions: human, highest tested concentration 50 μM. From the text:
Obtained values are expressed as percent inhibition of untreated RNA-transfected control condition.

The nature of data set [4]: viability evaluation (MTS/PMS) of Kernow-C1 p6/luc RNA-transfected Huh7 cells, Example 3. Conditions: human, highest tested concentration 50 μM, read-out: relative CC50.
Method: For viability evaluation, medium was removed and cells were subsequently incubated with MTS/PMS solution (3-(4,5-dimethylthiazol-2-yl)-5-(3-carboxymethoxyphenyl)-2-(4-sulfophenyl)-2H-tetrazolium/phenazinemethosulfate), which is metabolized to produce a brown, water-soluble product that is quantified after 1 h at 37° C. by absorbance read-out at 498 nm. Obtained values are expressed as percentage of untreated RNA-transfected control condition.

For `CCOc1nc(N)nc2c1ncn2[C@@H]1O[C@](F)(CO[P@](=O)(N[C@@H](C)C(=O)OC2CCCCC2)Oc2ccccc2)[C@@H](O)[C@@]1(C)F` [Compound 1], the results for the EC50 in data set [1] and in data set [2] were less than 0.64 nM and 13 nM, respectively. The half-maximal cytotoxic concentration (CC50) in data set [3] was more than 50 µM; in data set [4], not above 50 µM.
As for `CCOc1nc(N)nc2c1ncn2[C@@H]1O[C@](F)(COP(=O)(N[C@@H](C)C(=O)OC2CCCCC2)Oc2ccccc2)[C@@H](O)[C@@]1(C)O` (stereo partly drawn) [Compound 2], the concentration for a half-maximal effect (EC50) was 8.9 nM in data set [1] and 11 nM in data set [2].
For the molecule `CCOc1nc(N)nc2c1ncn2[C@@H]1O[C@](F)(COP(=O)(OCOC(=O)OC(C)C)OCOC(=O)OC(C)C)[C@@H](O)[C@@]1(C)F` [Compound 3], the EC50 in data set [1] was 9.9 nM; in data set [2], 12 nM.
Turning to `CCOc1nc(N)nc2c1ncn2[C@@H]1O[C@](F)(COP(=O)(N[C@@H](C)C(=O)OC(C)C)Oc2ccccc2)[C@@H](O)[C@@]1(C)F` (stereo partly drawn) [Compound 4], the half-maximal effective concentration (EC50) was determined as 36 nM in data set [1] and 6.5 nM in data set [2]. Further, the CC50 in data set [3] is more than 50 µM.
Consider `CCOc1nc(N)nc2c1ncn2[C@@H]1O[C@](F)(COP(=O)(OCOC(=O)OC(C)C)OCOC(=O)OC(C)C)[C@@H](O)[C@@]1(C)O` [Compound 6], for which the EC50 turned out to be 23 nM in data set [1] and 26 nM in data set [2].
As for `CC(C)OC(=O)[C@H](C)N[P@](=O)(OC[C@@]1(F)O[C@@H](n2ccc(=O)[nH]c2=O)[C@](C)(O)[C@@H]1O)Oc1ccccc1` [Compound 7], the figures for the EC50 in data set [1] and in data set [2] were 110 nM and 42 nM, respectively.
With `CCOc1nc(N)nc2c1ncn2[C@@H]1O[C@]2(F)CO[P@@](=O)(N[C@H](C)C(=O)OC(C)C)O[C@H]2[C@@]1(C)F` [Compound 8], the EC50 in data set [1] turned out to be 860 nM; in data set [2], 220 nM.
The corresponding values for `CC(C)OC(=O)OCOP(=O)(OCOC(=O)OC(C)C)OC[C@@]1(F)O[C@@H](n2ccc(=O)[nH]c2=O)[C@](C)(O)[C@@H]1O` [Compound 9] are 4800 nM and more than 50000 nM.
For `C=CCOP1(=O)OC[C@@]2(F)O[C@@H](n3cnc4c(OCC)nc(N)nc43)[C@](C)(F)[C@@H]2O1` (stereo partly drawn) [Compound 10], the concentration giving a half-maximal response (EC50) in data set [1] worked out at 5700 nM; in data set [2], 1300 nM. This molecule came in with a CC50 in data set [3] of more than 50 µM.
On to `CC(C)OC(=O)OCOP(=O)(OCOC(=O)OC(C)C)OC[C@@]1(F)O[C@@H](n2ccc(=O)[nH]c2=O)[C@](C)(F)[C@@H]1O` [Compound 11], for which the EC50 in data set [1] was 7300 nM; in data set [2] it was 720 nM.

Broadly, the EC50 is the concentration that produces a half-maximal response. Broadly, the CC50 is the concentration giving 50% cytotoxicity.
